Source: patent publication US20100137398A1, “USE OF HDAC INHIBITORS FOR THE TREATMENT OF GASTROINTESTINAL CANCERS” (NOVARTIS AG, priority 2007, published 2010)

Legend:
[1] = system: SU.86.86 pancreatic cancer cell line; test: Cell proliferation assay, pancreatic cancer cell lines; type: cell-based
Source text: (§1) The MTT is a colorimetric assay to determine the cell proliferation rate. The yellow tetrazolium MTT (3-(4, 5-dimethylthiazolyl-2)-2, 5-diphenyltetrazolium bromide) is reduced, by metabolically active cells, in part by the action of dehydrogenase enzymes, to generate reducing equivalents such as NADH and NADPH. The resulting intracellular purple formazan can be solubilized and quantified by spectrophotometric means. The signals produced is directly proportional to the cell numbers. Describing the MTT assay in detail, experiments were done using six-point or 9 point drug titrations in multi-well tissue culture dishes, with outer rows left empty. Cells were suspended in complete media at densities of between 10^3 and 10^4 cell/ml, respectively, and added per well. The appropriate medium (200 μl) was then added. Twenty-four hours later, 10 μl of MTS solution, were added to one plates to determine the activity at the time of compound addition (T0). This plate was incubated at 37° for 4 hours and the optical density was measured on a Molecular Devices Thermomax at 490 nm using the Softmax program. The T0 plate served as a reference for initial activity at the beginning of the experiment.
(§2) Compound addition began 24 hours after seeding, the same time as the T0 determination. Serial dilutions at 4-fold 2-fold, 1-fold, 0.5-fold, 0.25-fold and 0.125-fold of previously determined IC50 values of each compound were made in a 96-deep well plate with the highest concentrations on the edge of the plate. Each of the six dilutions were added in triplicate and complete medium was added to the empty outer rows, without cells. The compounds were added to the plates singly or in combination with Compound III (LBH589). The plates were incubated at 37° C. for 72 hours from seeding. The MTS solution was added (as for the T0 plate) and read four hours later. In order to analyze the data, the average value of media alone (background) was subtracted from each experimental well and the triplicate values were averaged for each compound dilution. The following formulas were used to calculate percent growth.
(§3) If X>T0, % Growth=100×(X−T0)/(GC−T0))
(§4) If X<T0, % Growth=100×(X−T0)/T0)
(§5) T0=average value of T0 minus background
(§6) GC=average value of untreated cells (in triplicate) minus background X=average value, of compound treated cells (in triplicate) minus background
(§7) IC50 the concentration of LBH589 required to inhibit cell growth by 50% and LD50s the concentration required to reduce cell number (kill cells) to 50% the original innoculum were determined. The “% Growth” was plotted against compound concentration and used to calculate IC50s and LD50s, employing the user-defined spline function in Microsoft Excel.
(§8) Pancreatic cancer cell lines were treated with DMSO vehicle control or varying concentrations of LBH589 for 3 days. Cell proliferation was measured on the day of cell plating and on the third day post-treatment. IC50 and LD50 values were calculated as described above.

[2] = system: BxPC3 pancreatic cancer cell line; test: as above; type: cell-based
Source text: as §1, §2, §3, §4, §5, §6, §7, §8

[3] = system: AsPC1 pancreatic cancer cell line; test: as above; type: cell-based
Source text: as §1, §2, §3, §4, §5, §6, §7, §8

[4] = system: Panc1 pancreatic cancer cell line; test: as above; type: cell-based
Source text: as §1, §2, §3, §4, §5, §6, §7, §8

[5] = system: Panc2.03 pancreatic cancer cell line; test: as above; type: cell-based
Source text: as §1, §2, §3, §4, §5, §6, §7, §8

[6] = system: MiaPaCa2 pancreatic cancer cell line; test: as above; type: cell-based
Source text: as §1, §2, §3, §4, §5, §6, §7, §8

[7] = system: Hs766T pancreatic cancer cell line; test: as above; type: cell-based
Source text: as §1, §2, §3, §4, §5, §6, §7, §8

[8] = system: Panc3.27 pancreatic cancer cell line; test: as above; type: cell-based
Source text: as §1, §2, §3, §4, §5, §6, §7, §8

[9] = system: Panc10.05 pancreatic cancer cell line; test: as above; type: cell-based
Source text: as §1, §2, §3, §4, §5, §6, §7, §8

[10] = system: HPAC pancreatic cancer cell line; test: as above; type: cell-based
Source text: as §1, §2, §3, §4, §5, §6, §7, §8

[11] = system: Panc4.03 pancreatic cancer cell line; test: as above; type: cell-based
Source text: as §1, §2, §3, §4, §5, §6, §7, §8

[12] = system: Capan1 pancreatic cancer cell line; test: as above; type: cell-based
Source text: as §1, §2, §3, §4, §5, §6, §7, §8

[13] = system: HCT116 colon cancer cell line; test: Monolayer growth inhibition assay (MTT/MTS); type: cell-based
Source text: as §1, §2, §3, §4, §5, §6, §7
Colon cancer cell lines were treated with DMSO vehicle control or varying concentrations of LBH589 for 3 days. Cell proliferation was measured on the day of cell plating and on the third day post-treatment. IC50 and LD50 values were calculated as described above.

[14] = system: Colo205 colon cancer xenograft; test: Colo205 colon cancer xenograft model, tumor growth inhibition and delay; type: in vivo, Female athymic nude mice; conditions: LBH589 30 mg/kg iv Mon/Wed/Fri for 3 weeks, 5-FU 75 mg/kg ip once a week for 3 weeks, or both
Method: Female athymic nude mice-were implanted subcutaneously with Col6205 colon cancer cells. When tumors reached a medan tumor volume of 220 mm3, mice were randomized into groups of 10 mice. Mice were treated with LBH589 at 30 mg/kg intravenously on Monday, Wednesday, Friday per week for 3 weeks, 75 mg/kg of 5-Fluorouracil intraperitoneally once a week for 3 weeks, or combination of the two agents. For tumor growth inhibition (FIG. 2A), compound activity was measured as the percent change in tumor volume of treated animals over control animals (% T/C). The percentage of regression was determined as the percent change in the final tumor volume at the end of the study over the starting tumor volume. For tumor growth delay (FIG. 2B), compound activity was measured as the change in median calculated time to the study end point (TTE), which was predefined as tumor volume of 1000 mm^3.

[15] = 3 days, concentration reducing cell number to 50% of original inoculum

Cc1[nH]c2ccccc2c1CCNCc1ccc(/C=C/C(=O)NO)cc1 [LBH589, N-hydroxy-3-[4-[[[2-(2-methyl-1H-indol-3-yl)ethyl]-amino]methyl]phenyl]-2E-2-propenamide]
IC50 ([1]; Homo sapiens, 72 h, SU.86.86, 3 days treatment): 51 nM | LD50 ([1]; SU.86.86, 3 days, concentration reducing cell number to 50% of original inoculum): 170.4 nM | LD50 ([2]; BxPC3, 3 days, concentration reducing cell number to 50% of original inoculum): 104.8 nM | IC50 ([2]; Homo sapiens, BXPC-3, 72 h, BxPC3, 3 days treatment): 15.9 nM | LD50 ([3]; AsPC1, 3 days, concentration reducing cell number to 50% of original inoculum): 372.4 nM | IC50 ([3]; Homo sapiens, 72 h, AsPC1, 3 days treatment): 25.1 nM | IC50 ([4]; Homo sapiens, PANC-1, 72 h, Panc1, 3 days treatment): 18.9 nM | LD50 ([4]; Panc1, 3 days, concentration reducing cell number to 50% of original inoculum): 175.4 nM | IC50 ([5]; Homo sapiens, Panc203, 72 h, Panc2.03, 3 days treatment): 22.4 nM | LD50 ([5]; Panc2.03, 3 days, concentration reducing cell number to 50% of original inoculum): 599.5 nM | IC50 ([6]; Homo sapiens, MIA PaCa-2, 72 h, MiaPaCa2, 3 days treatment): 14.1 nM | LD50 ([6]; MiaPaCa2, 3 days, concentration reducing cell number to 50% of original inoculum): 59.5 nM | IC50 ([7]; 72 h, 3 days treatment): 14.1 nM | LD50 [7, 15]: 119.9 nM | LD50 ([8]; Panc3.27, 3 days, concentration reducing cell number to 50% of original inoculum): 276.8 nM | IC50 ([8]; Pancreatic cancer cell, 72 h, Panc3.27, 3 days treatment): 38.5 nM | IC50 ([9]; Homo sapiens, Panc1005, 72 h, Panc10.05, 3 days treatment): 31.8 nM | LD50 ([9]; Panc10.05, 3 days, concentration reducing cell number to 50% of original inoculum): 282.4 nM | LD50 [10, 15]: 2051.6 nM | IC50 ([10]; Homo sapiens, 72 h, 3 days treatment): 123 nM | LD50 ([11]; Panc4.03, 3 days, concentration reducing cell number to 50% of original inoculum): >10 µM | IC50 ([11]; Pancreatic cancer cell, 72 h, Panc4.03, 3 days treatment): 20.3 nM | LD50 ([12]; Capan1, 3 days, concentration reducing cell number to 50% of original inoculum): 191.5 nM | IC50 ([12]; Homo sapiens, CAPAN-1, 72 h, Capan1, 3 days treatment): 55.6 nM | LD50 ([13]; HCT116, 3 days, concentration reducing cell number to 50% of original inoculum): 51.72 nM | IC50 ([13]; Homo sapiens, HCT-116, 72 h, HCT116, 3 days treatment): 7.11 nM | tumor growth inhibition (TGI) and tumor growth delay (TGD) [14]: led to tumor growth inhibition (TGI) and tumor growth delay (TGD) | Median TTE (time to study end point, tumor volume of 1000 mm^3) ([14]; vehicle 39.5 days): 32.9 days
